Test [1] concerns Nrf2 / ARE-dependent luciferase in AREc32 reporter cell line. The experiment in a line: AREc32 luciferase reporter activation (Nrf2 induction). The test is classed as cell-based, human. As to conditions: for EC (2-fold): Homo sapiens, Arec32; for Relative Avg AREc32 EC2X Relative to RTA402 (fold): ratio to RTA402. The gist of the method:
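EC2X is the concentration raising luminescence 2-fold above DMSO-treated cells, from a nonlinear-regression dose–response fit. Compounds (0.03–1000 nM) were applied for nineteen hours, starting one day after seeding 20,000 reporter cells per well. Luciferase was read with One-Glo reagent.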
(In general: A reporter such as luciferase makes a cellular process visible.)

For test [2], the system named is IFNγ-induced NO production in RAW 264.7 cells. The experiment in a line: Nitric Oxide Suppression Assay (IFNγ-induced NO, Griess nitrite readout). The test is classed as cell-based, mouse. As to conditions: for IC50: Mus musculus, read-out: Avg NO IC50 (nM) (Mean ± SD); for Avg NO IC50 Relative to RTA402 (fold): Table 2, ratio to RTA402. In short, it runs like this: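 RAW 264.7 mouse macrophages in RPMI 1640 with 0.5% FBS were pretreated 2 h with compound (0.1% DMSO final), then stimulated with 20 ng/mL IFNγ for 24 h at 37° C. Supernatant nitrite was read by Griess absorbance at 525 nm against a nitrite standard curve, normalized to DMSO-IFNγ wells; IC50 from curve fit. Viability by WST-1.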
On the technique in general: Nitrite, measured by Griess reagent, commonly stands in for NO production.

The mark [3] stands for this setting: Table 2, concentration increasing luminescence 2-fold above vehicle, 19 h treatment, read-out: Avg AREc32 EC2X (nM) (Mean ± SD).
Where [4] appears, read: Table 3, ursolic acid derivatives, read-out: Avg ARE EC-2X (nM) (Mean ± SD).
[5] abbreviates: RAW264.7, Table 2, RAW 264.7 cells, 2 h pretreatment, 20 ng/mL interferon gamma 24 h.
The mark [6] stands for this setting: RAW264.7, Table 3, ursolic acid derivatives.

SMILES strings stand for the structures. Read-outs that look alike come from different tables or passages of the source.

`C[C@@H]1[C@H]2[C@H]3C(=O)C=C4[C@@]5(C)C=C(C#N)C(=O)C(C)(C)[C@@H]5CC[C@@]4(C)[C@]3(C)CC[C@@]2(Cn2ccnn2)CC[C@H]1C` [Compound T50]: the EC (2-fold) in test [1] (setting [3]) and in test [1] (setting [4]) was 8.26 ± 1.39 nM in each case. Further, in test [1] (Table 2), the “Relative Avg AREc32 EC2X Relative to RTA402 (fold)” value was 0.666 ± 0.148 fold. Further, the IC50 in test [2] (setting [5]) and in test [2] (setting [6]) was 9.81 ± 2.79 nM in each case. Further, the “Avg NO IC50 Relative to RTA402 (fold)” value in test [2] is 3.18 ± 0.30 fold.
For `C[C@@H]1[C@H]2[C@H]3C(=O)C=C4[C@@]5(C)C=C(C#N)C(=O)C(C)(C)[C@@H]5CC[C@@]4(C)[C@]3(C)CC[C@@]2(Cn2ccnc2)CC[C@H]1C` [Compound T51], the EC (2-fold) in test [1] (setting [3]) and in test [1] (setting [4]) was 15.3 ± 3.6 nM throughout. Moreover, the “Relative Avg AREc32 EC2X Relative to RTA402 (fold)” value in test [1] (Table 2) is 1.2 ± 0.1 fold. Also, the IC50 in test [2] (setting [5]) and in test [2] (setting [6]) was 17.4 ± 2.5 nM each time. Besides, the “Avg NO IC50 Relative to RTA402 (fold)” value in test [2] came to 5.79 ± 0.73 fold.
For the compound `C[C@@H]1[C@H]2[C@H]3C(=O)C=C4[C@@]5(C)C=C(C#N)C(=O)C(C)(C)[C@@H]5CC[C@@]4(C)[C@]3(C)CC[C@@]2(Cn2cnnn2)CC[C@H]1C` [Compound T52], the EC (2-fold) in test [1] (setting [3]) turned out to be 8.74 ± 0.51 nM. In test [1] (Table 2), the “Relative Avg AREc32 EC2X Relative to RTA402 (fold)” value came out at 0.654 ± 0.079 fold. Further, the IC50 (as a rule, the midpoint of a concentration-inhibition curve) in test [2] (setting [5]) amounted to 8.99 ± 1.84 nM. Further, the “Avg NO IC50 Relative to RTA402 (fold)” value in test [2] amounted to 3.35 ± 0.65 fold.
As to `COC(=O)N1CCC(=O)N1C[C@]12CC[C@@H](C)[C@H](C)[C@H]1[C@H]1C(=O)C=C3[C@@]4(C)C=C(C#N)C(=O)C(C)(C)[C@@H]4CC[C@@]3(C)[C@]1(C)CC2` [Compound T53], the EC (2-fold) in test [1] (setting [3]) was determined as 1.74 ± 0.47 nM. Also, the “Relative Avg AREc32 EC2X Relative to RTA402 (fold)” value in test [1] (Table 2) was found to be 0.173 ± 0.054 fold. Further, the IC50 in test [2] (setting [5]) was determined as 2.79 ± 0.59 nM. For the same compound, the “Avg NO IC50 Relative to RTA402 (fold)” value in test [2] was 0.82 ± 0.08 fold.
Regarding `C[C@@H]1[C@H]2[C@H]3C(=O)C=C4[C@@]5(C)C=C(C#N)C(=O)C(C)(C)[C@@H]5CC[C@@]4(C)[C@]3(C)CC[C@@]2(CN2NCCC2=O)CC[C@H]1C` [Compound T54], the EC (2-fold) in test [1] (setting [3]) and in test [1] (setting [4]) was 4.92 ± 1.14 nM throughout. For the same compound, the “Relative Avg AREc32 EC2X Relative to RTA402 (fold)” value in test [1] (Table 2) is given as 0.403 ± 0.103 fold. The IC50 in test [2] (setting [5]) and in test [2] (setting [6]) was 6.42 ± 1.07 nM throughout. Also, the “Avg NO IC50 Relative to RTA402 (fold)” value in test [2] came to 1.84 ± 0.45 fold.
With `C[C@@H]1[C@H]2[C@H]3C(=O)C=C4[C@@]5(C)C=C(C#N)C(=O)C(C)(C)[C@@H]5CC[C@@]4(C)[C@]3(C)CC[C@@]2(CN2CCC2)CC[C@H]1C` [Compound T55], the EC (2-fold) in test [1] (setting [3]) and in test [1] (setting [4]) was 14.4 ± 1.3 nM in each case. Moreover, in test [1] (Table 2), the “Relative Avg AREc32 EC2X Relative to RTA402 (fold)” value is given as 1.12 ± 0.09 fold. Also, the IC50 in test [2] (setting [5]) and in test [2] (setting [6]) was 14.6 ± 3 nM each time. Further, in test [2], the “Avg NO IC50 Relative to RTA402 (fold)” value came to 5.21 ± 2.77 fold.
Consider `CO/N=C/[C@]12CC[C@@H](C)[C@H](C)[C@H]1[C@H]1C(=O)C=C3[C@@]4(C)C=C(C#N)C(=O)C(C)(C)[C@@H]4CC[C@@]3(C)[C@]1(C)CC2` [Compound T57], for which, in test [1] (setting [3]), the EC (2-fold) turned out to be 34.1 ± 4.98 nM. In addition, in test [1] (Table 2), the “Relative Avg AREc32 EC2X Relative to RTA402 (fold)” value came out at 2.73 ± 0.34 fold. For the same compound, the IC50 in test [2] (setting [5]) was found to be 20.1 ± 6 nM. Besides, the “Avg NO IC50 Relative to RTA402 (fold)” value in test [2] was determined as 8.81 ± 0.63 fold.
For `C[C@@H]1[C@H]2[C@H]3C(=O)C=C4[C@@]5(C)C=C(C#N)C(=O)C(C)(C)[C@@H]5CC[C@@]4(C)[C@]3(C)CC[C@@]2(N2CCCC2=O)CC[C@H]1C` [Compound T58], the EC (2-fold) in test [1] (setting [3]) and in test [1] (setting [4]) was 33.6 ± 3.3 nM each time. In test [1] (Table 2), the “Relative Avg AREc32 EC2X Relative to RTA402 (fold)” value is 2.64 ± 0.47 fold. Besides, the IC50 in test [2] (setting [5]) and in test [2] (setting [6]) was 26 ± 8.8 nM in each case. Moreover, the “Avg NO IC50 Relative to RTA402 (fold)” value in test [2] is 8.67 ± 3.30 fold.

These data come from patent US20240140986A1, “SYNTHETIC URSOLIC ACID DERIVATIVES AND METHODS OF USE THEREOF” (REATA PHARMACEUTICALS, INC., priority 2021, published 2024).
